# Data reported in PubChem BioAssay (NCI).
#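 Tested at 5 concentrations; 48 h exposure; 96-well plates; endpoints linearly interpolated, else capped at highest concentration. TGI is the concentration that stops growth completely.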
# Columns and labels:
# Assay in all cases: NCI tumour cell line growth inhibition, 48 h
# A498 renal = test system: A498 renal
# A549 NSCLC = test system: A549 NSCLC
# CAKI-1 renal = test system: CAKI-1 renal
# CCRF-CEM leukemia = test system: CCRF-CEM leukemia
# COLO 205 colon = test system: COLO 205 colon
# DLD-1 colon = test system: DLD-1 colon
# DMS 114 small cell lung = test system: DMS 114 small cell lung
# DMS 273 small cell lung = test system: DMS 273 small cell lung
# EKVX NSCLC = test system: EKVX NSCLC
# HCC-2998 colon = test system: HCC-2998 colon
# HCT-116 colon = test system: HCT-116 colon
# HCT-15 colon = test system: HCT-15 colon
# HL-60(TB) leukemia = test system: HL-60(TB) leukemia
# HOP-18 NSCLC = test system: HOP-18 NSCLC
# HOP-62 NSCLC = test system: HOP-62 NSCLC
# HOP-92 NSCLC = test system: HOP-92 NSCLC
# HT29 colon = test system: HT29 colon
# IGROV1 ovarian = test system: IGROV1 ovarian
# K-562 leukemia = test system: K-562 leukemia
# KM12 colon = test system: KM12 colon
# KM20L2 colon = test system: KM20L2 colon
# LOX IMVI melanoma = test system: LOX IMVI melanoma
# M19-MEL melanoma = test system: M19-MEL melanoma
# MALME-3M melanoma = test system: MALME-3M melanoma
# MCF7 breast = test system: MCF7 breast
# MOLT-4 leukemia = test system: MOLT-4 leukemia
# NCI-H226 lung = test system: NCI-H226 lung
# NCI-H23 lung = test system: NCI-H23 lung
# NCI-H460 lung = test system: NCI-H460 lung
# NCI-H522 lung = test system: NCI-H522 lung
# NCI/ADR-RES ovarian = test system: NCI/ADR-RES ovarian
# OVCAR-3 ovarian = test system: OVCAR-3 ovarian
# OVCAR-4 ovarian = test system: OVCAR-4 ovarian
# OVCAR-5 ovarian = test system: OVCAR-5 ovarian
# OVCAR-8 ovarian = test system: OVCAR-8 ovarian
# P388 leukemia = test system: P388 leukemia
# P388/ADR leukemia = test system: P388/ADR leukemia
# RPMI-8226 leukemia = test system: RPMI-8226 leukemia
# RXF 393 renal = test system: RXF 393 renal
# SF-268 CNS = test system: SF-268 CNS
# SF-295 CNS = test system: SF-295 CNS
# SF-539 CNS = test system: SF-539 CNS
# SK-MEL-2 melanoma = test system: SK-MEL-2 melanoma
# SK-MEL-28 melanoma = test system: SK-MEL-28 melanoma
# SK-MEL-5 melanoma = test system: SK-MEL-5 melanoma
# SK-OV-3 ovarian = test system: SK-OV-3 ovarian
# SN12C renal = test system: SN12C renal
# SN12K1 renal = test system: SN12K1 renal
# SNB-19 CNS = test system: SNB-19 CNS
# SNB-75 CNS = test system: SNB-75 CNS
# SNB-78 CNS = test system: SNB-78 CNS
# SW-620 colon = test system: SW-620 colon
# U251 CNS = test system: U251 CNS
# UACC-257 melanoma = test system: UACC-257 melanoma
# UACC-62 melanoma = test system: UACC-62 melanoma
# UO-31 renal = test system: UO-31 renal
# XF 498 CNS = test system: XF 498 CNS
# 786-0 renal = test system: 786-0 renal
# ACHN renal = test system: ACHN renal
# LXFL 529 NSCLC = test system: LXFL 529 NSCLC
# M14 melanoma = test system: M14 melanoma
# SR leukemia = test system: SR leukemia
# TK-10 renal = test system: TK-10 renal
structure (smiles),measurement,setting,value
COC(=O)c1ccc(N=NN(C)COc2ccc(Br)cc2)cc1,TGI,A498 renal,> 100 µM
same,TGI,A549 NSCLC,> 100 µM
same,TGI,CAKI-1 renal,> 100 µM
same,TGI,CCRF-CEM leukemia,> 100 µM
same,TGI,COLO 205 colon,> 100 µM
same,TGI,DLD-1 colon,> 100 µM
same,TGI,DMS 114 small cell lung,> 100 µM
same,TGI,DMS 273 small cell lung,> 100 µM
same,TGI,EKVX NSCLC,> 100 µM
same,TGI,HCC-2998 colon,87.7 µM
same,TGI,HCT-116 colon,> 100 µM
same,TGI,HCT-15 colon,> 100 µM
same,TGI,HL-60(TB) leukemia,59.7 µM
same,TGI,HOP-18 NSCLC,> 100 µM
same,TGI,HOP-62 NSCLC,> 100 µM
same,TGI,HOP-92 NSCLC,> 100 µM
same,TGI,HT29 colon,> 100 µM
same,TGI,IGROV1 ovarian,> 100 µM
same,TGI,K-562 leukemia,> 100 µM
same,TGI,KM12 colon,> 100 µM
same,TGI,KM20L2 colon,> 100 µM
same,TGI,LOX IMVI melanoma,> 100 µM
same,TGI,M19-MEL melanoma,> 100 µM
same,TGI,MALME-3M melanoma,> 100 µM
same,TGI,MCF7 breast,> 100 µM
same,TGI,MOLT-4 leukemia,> 92.6 µM
same,TGI,NCI-H226 lung,> 100 µM
same,TGI,NCI-H23 lung,> 100 µM
same,TGI,NCI-H460 lung,> 100 µM
same,TGI,NCI-H522 lung,> 100 µM
same,TGI,NCI/ADR-RES ovarian,> 100 µM
same,TGI,OVCAR-3 ovarian,> 100 µM
same,TGI,OVCAR-4 ovarian,> 100 µM
same,TGI,OVCAR-5 ovarian,> 100 µM
same,TGI,OVCAR-8 ovarian,> 100 µM
same,TGI,P388 leukemia,> 100 µM
same,TGI,P388/ADR leukemia,> 100 µM
same,TGI,RPMI-8226 leukemia,> 79.8 µM
same,TGI,RXF 393 renal,> 100 µM
same,TGI,SF-268 CNS,> 100 µM
same,TGI,SF-295 CNS,> 100 µM
same,TGI,SF-539 CNS,> 100 µM
same,TGI,SK-MEL-2 melanoma,> 100 µM
same,TGI,SK-MEL-28 melanoma,> 100 µM
same,TGI,SK-MEL-5 melanoma,> 100 µM
same,TGI,SK-OV-3 ovarian,> 100 µM
same,TGI,SN12C renal,> 100 µM
same,TGI,SN12K1 renal,> 100 µM
same,TGI,SNB-19 CNS,> 100 µM
same,TGI,SNB-75 CNS,> 100 µM
same,TGI,SNB-78 CNS,> 100 µM
same,TGI,SW-620 colon,> 100 µM
same,TGI,U251 CNS,> 100 µM
same,TGI,UACC-257 melanoma,> 100 µM
same,TGI,UACC-62 melanoma,> 100 µM
same,TGI,UO-31 renal,> 100 µM
same,TGI,XF 498 CNS,> 100 µM
NC(=O)/N=C1/CCC2C3CCCC2C13,TGI,786-0 renal,> 100 µM
same,TGI,A549 NSCLC,> 100 µM
same,TGI,ACHN renal,> 100 µM
same,TGI,CAKI-1 renal,> 100 µM
same,TGI,CCRF-CEM leukemia,> 100 µM
same,TGI,COLO 205 colon,> 100 µM
same,TGI,DLD-1 colon,> 100 µM
same,TGI,DMS 114 small cell lung,> 100 µM
same,TGI,DMS 273 small cell lung,> 100 µM
same,TGI,EKVX NSCLC,> 100 µM
same,TGI,HCC-2998 colon,> 100 µM
same,TGI,HCT-116 colon,> 100 µM
same,TGI,HL-60(TB) leukemia,> 100 µM
same,TGI,HOP-18 NSCLC,> 100 µM
same,TGI,HOP-62 NSCLC,> 100 µM
same,TGI,HOP-92 NSCLC,> 100 µM
same,TGI,HT29 colon,> 100 µM
same,TGI,IGROV1 ovarian,> 100 µM
same,TGI,K-562 leukemia,> 100 µM
same,TGI,KM12 colon,> 100 µM
same,TGI,KM20L2 colon,> 100 µM
same,TGI,LOX IMVI melanoma,> 100 µM
same,TGI,LXFL 529 NSCLC,> 100 µM
same,TGI,M14 melanoma,> 100 µM
same,TGI,MOLT-4 leukemia,> 100 µM
same,TGI,NCI-H226 lung,> 100 µM
same,TGI,NCI-H23 lung,> 100 µM
same,TGI,NCI-H460 lung,> 100 µM
same,TGI,NCI-H522 lung,> 100 µM
same,TGI,OVCAR-3 ovarian,> 100 µM
same,TGI,OVCAR-4 ovarian,> 100 µM
same,TGI,OVCAR-5 ovarian,> 100 µM
same,TGI,OVCAR-8 ovarian,> 100 µM
same,TGI,RPMI-8226 leukemia,> 100 µM
same,TGI,RXF 393 renal,> 100 µM
same,TGI,SF-268 CNS,> 100 µM
same,TGI,SF-295 CNS,> 100 µM
same,TGI,SF-539 CNS,> 100 µM
same,TGI,SK-MEL-2 melanoma,> 100 µM
same,TGI,SK-MEL-28 melanoma,> 100 µM
same,TGI,SK-MEL-5 melanoma,> 100 µM
same,TGI,SK-OV-3 ovarian,> 100 µM
same,TGI,SN12C renal,> 100 µM
same,TGI,SNB-19 CNS,> 100 µM
same,TGI,SNB-75 CNS,> 100 µM
same,TGI,SNB-78 CNS,> 100 µM
same,TGI,SR leukemia,> 100 µM
same,TGI,SW-620 colon,> 100 µM
same,TGI,TK-10 renal,> 100 µM
same,TGI,U251 CNS,> 100 µM
same,TGI,UACC-257 melanoma,> 100 µM
same,TGI,UACC-62 melanoma,> 100 µM
same,TGI,UO-31 renal,> 100 µM
same,TGI,XF 498 CNS,> 100 µM
